Paper PMC5517430, “2,3,7,8-Tetrachlorodibenzo-p-dioxin (TCDD)-elicited effects on bile acid homeostasis: Alterations in biosynthesis, enterohepatic circulation, and microbial metabolism” (Scientific Reports, 2017)

What was measured:
[1] = system: AhR; assay: Hepatic AhR ChIP-Seq (AhR genomic enrichment); type: in vivo, mouse
Procedure: Putative dioxin response elements (pDREs) with matrix similarity scores (MSS) ≥ 0.856 were previously identified. ChIP-Seq was previously performed on liver samples from male C57BL/6 mice 2 h after a single bolus oral gavage of 30 µg/kg TCDD[33], [70]. Briefly, cross-linked DNA was immunoprecipitated with either rabbit IgG or anti-AhR (H-211, sc-5579; Santa Cruz, CA). Libraries were prepared using the MicroPlex kit (Diagenode), pooled, and sequenced at a depth of a ~30 M on an Illumina HiSeq 2500 at the MSU RTSF Genomics Core. Reads were mapped to the mouse reference genome (GRCm38 release 81) using Bowtie 2.0.0 and alignments converted to SAM format using SAMTools v0.1.2. Normalization and peak calling was performed using CisGenome[71], by comparing IgG control and AhR enriched samples (n = 5) using a bin size (−b) of 25 and boundary refinement resolution (−bw) of 1 with default parameters.

[2] = system: Slc10a2; assay: Ileal epithelium RNA-Seq differential gene expression (fold change, P1(t), ED50, BMD, BMDL); type: in vivo, mouse; set-up: key to Cyp3a44 P1(t)_30: statistical P1(t) value; differentially expressed if ≥ 0.8; settings: C57BL/6, mouse, ileal epithelium, oral; male mice, TCDD every 4 d for 28 d
Procedure: (§1) Frozen ileal epithelium scrapings and liver samples were homogenized in TRIzol (Ambion, Waltham, MA) using a Mixer Mill 300 tissue homogenizer (Retsch, Germany) and total RNA was isolated as previously described. RNA was quantified using a Nano-drop spectrophotometer (Thermo Scientific, Wilmington, DE) at 260 nm, and purity was assessed using the A260/A280 ratio and the Caliper LabChip GX (Perkin Elmer, Waltham, MA).
(§2) Dose-dependent gene expression was examined using RNA-Seq performed at the MSU Research Technology Support Facility (RTSF) Genomics Core (rtsf.natsci.msu.edu/genomics). Ileal libraries from three independent biological replicates (n = 3) were prepared using the Ovation Mouse RNA-Seq System 1–16 sample preparation kit (NuGen, San Carlos, CA), with an additional DNase step. Libraries were quantified and sequenced as previously described, using a read depth of ~30 M per sample[33], [67]. Quality was determined using FASTQC v0.11.3 and adaptor sequences were removed using Trimmomatic v0.33. Reads were mapped to the mouse reference genome (GRCm38 release 81) using Bowtie2 v2.2.6 and TopHat2 v2.1.0. Alignments were converted to SAM format using SAMTools v1.2.0. For TCDD-mediated differential gene expression, fold changes were calculated relative to vehicle controls. Hepatic RNA-Seq analysis was previously published. Genes were considered differentially expressed if |fold change| ≥ 1.5 and statistical P1(t) value ≥ 0.8 at one or more doses. RNA-Seq datasets for the ileal epithelium and liver were deposited in the Gene Expression Omnibus (GEO; accession number GSE89430 and GSE87519, respectively). The RNA-Seq results (fold changes, P1(t) values) for each gene discussed in the manuscript have been compiled in Supplementary Table S1. […] Estimation of benchmark dose (BMD) and BMD lower confidence limit (BMDL) was performed using BMDExpress[69] as previously described, and has been included in Supplementary Table S1.

[3] = system: Slc51a; assay: as above; type: in vivo, mouse; set-up: key to Cyp3a44 P1(t)_30: statistical P1(t) value; differentially expressed if ≥ 0.8; settings: C57BL/6, mouse, ileal epithelium, oral; male mice, TCDD every 4 d for 28 d
Procedure: as §1, §2

[4] = system: ileal gene expression; assay: as above; type: in vivo, mouse; set-up: key to Cyp3a44 P1(t)_30: statistical P1(t) value; differentially expressed if ≥ 0.8
Procedure: as §1, §2

[5] = system: hepatic cholesterol; set-up: method as in PMID 28238261; settings: male C57BL/6 mice, 30 µg/kg TCDD every 4 d for 28 d, cited from earlier work
[6] = male mouse liver, 2 h after single oral gavage of 30 µg/kg TCDD
[7] = ileum, 0.01 µg/kg TCDD, relative to vehicle control
[8] = ileum, 0.03 µg/kg TCDD, relative to vehicle control
[9] = ileum, 0.1 µg/kg TCDD, relative to vehicle control
[10] = ileum, 0.3 µg/kg TCDD, relative to vehicle control
[11] = ileum, 1 µg/kg TCDD, relative to vehicle control
[12] = ileum, 3 µg/kg TCDD, relative to vehicle control
[13] = ileum, 10 µg/kg TCDD, relative to vehicle control
[14] = ileum, 30 µg/kg TCDD, relative to vehicle control
[15] = male mice, TCDD every 4 d for 28 d

Clc1cc2c(cc1Cl)Oc1cc(Cl)c(Cl)cc1O2 [TCDD, 2,3,7,8-tetrachlorodibenzo-p-dioxin]
Slc6a6 (TAUT) AhR Binding? ([1]; liver): YES | Slc10a1 (NTCP or LBAT) AhR Binding? ([1]; liver): YES | Slco2b1 (OATP2B1) AhR Binding? ([1]; liver): YES | Soat1 AhR Binding? ([1]; liver): YES | Soat2 AhR Binding? ([1]; liver): YES | Sqle AhR Binding? ([1]; liver): YES | Srebf2 AhR Binding? ([1]; liver): YES | Tm7sf2 AhR Binding? ([1]; liver): YES | AhR binding within Cyp8b1, fold enrichment [1, 6]: 2.2 fold | AhR genomic binding at Cyp7a1, fold enrichment [1, 6]: 2.3 fold | AhR genomic binding at the Hmgcr loci, fold increase [1, 6]: 10.3 fold | fold induction at 28 d [2]: 1.6 | fold induction at 28 d [3]: 1.5 | Cyp3a44 BMD ([4]; ileum): 36.49 µg/kg TCDD | Cyp3a44 BMDL ([4]; ileum): 18.80 µg/kg TCDD | Cyp3a44 Differentially Expressed? ([4]; ileum): YES | Cyp3a44 ED50 ([4]; ileum): Not sigmoidal | Fgf15 BMD ([4]; ileum): No model fit | Fgf15 BMDL ([4]; ileum): No model fit | Fgf15 Differentially Expressed? ([4]; ileum): YES | Fgf15 ED50 ([4]; ileum): 9.00 µg/kg TCDD | Slc10a2 (ASBT or IBAT) BMD ([4]; ileum): 5.66 µg/kg TCDD | Slc10a2 (ASBT or IBAT) BMDL ([4]; ileum): 0.69 µg/kg TCDD | Slc10a2 (ASBT or IBAT) Differentially Expressed? ([4]; ileum): YES | Slc10a2 (ASBT or IBAT) ED50 ([4]; ileum): 0.98 µg/kg TCDD | Slc51a (OSTα) BMD ([4]; ileum): No model fit | Slc51a (OSTα) BMDL ([4]; ileum): No model fit | Slc51a (OSTα) Differentially Expressed? ([4]; ileum): YES | Slc51a (OSTα) ED50 ([4]; ileum): 0.89 µg/kg TCDD | Cyp3a44 P1(t)_0.01 ([4]; ileum, 0.01 µg/kg TCDD): -0.1316 | Cyp3a44 FC_0.01 [4, 7]: 0.91 | Fgf15 FC_0.01 [4, 7]: 0.81 | Slc10a2 (ASBT or IBAT) FC_0.01 [4, 7]: 0.93 | Slc51a (OSTα) FC_0.01 [4, 7]: 0.98 | Slc51b (OSTβ) FC_0.01 [4, 7]: 0.88 | Cyp3a44 P1(t)_0.03 ([4]; ileum, 0.03 µg/kg TCDD): 0.0640 | Cyp3a44 FC_0.03 [4, 8]: 0.80 | Fgf15 FC_0.03 [4, 8]: 0.63 | Slc10a2 (ASBT or IBAT) FC_0.03 [4, 8]: 0.93 | Slc51a (OSTα) FC_0.03 [4, 8]: 0.96 | Slc51b (OSTβ) FC_0.03 [4, 8]: 0.87 | Cyp3a44 P1(t)_0.1 ([4]; ileum, 0.1 µg/kg TCDD): -0.1090 | Cyp3a44 FC_0.1 [4, 9]: 0.89 | Fgf15 FC_0.1 [4, 9]: 0.85 | Slc10a2 (ASBT or IBAT) FC_0.1 [4, 9]: 0.92 | Slc51a (OSTα) FC_0.1 [4, 9]: 0.98 | Slc51b (OSTβ) FC_0.1 [4, 9]: 0.88 | Cyp3a44 P1(t)_0.3 ([4]; ileum, 0.3 µg/kg TCDD): 0.6027 | Cyp3a44 FC_0.3 [4, 10]: 0.61 | Fgf15 FC_0.3 [4, 10]: 1.12 | Slc10a2 (ASBT or IBAT) FC_0.3 [4, 10]: 0.74 | Slc51a (OSTα) FC_0.3 [4, 10]: 1.07 | Slc51b (OSTβ) FC_0.3 [4, 10]: 0.88 | Cyp3a44 P1(t)_1 ([4]; ileum, 1 µg/kg TCDD): 0.5083 | Cyp3a44 FC_1 [4, 11]: 0.65 | Fgf15 FC_1 [4, 11]: 1.50 | Slc10a2 (ASBT or IBAT) FC_1 [4, 11]: 1.19 | Slc51a (OSTα) FC_1 [4, 11]: 1.30 | Slc51b (OSTβ) FC_1 [4, 11]: 0.90 | Cyp3a44 P1(t)_3 ([4]; ileum, 3 µg/kg TCDD): -0.1130 | Cyp3a44 FC_3 [4, 12]: 1.12 | Fgf15 FC_3 [4, 12]: 1.99 | Slc10a2 (ASBT or IBAT) FC_3 [4, 12]: 1.22 | Slc51a (OSTα) FC_3 [4, 12]: 1.46 | Slc51b (OSTβ) FC_3 [4, 12]: 0.95 | Cyp3a44 P1(t)_10 ([4]; ileum, 10 µg/kg TCDD): 0.9033 | Cyp3a44 FC_10 [4, 13]: 0.46 | Fgf15 FC_10 [4, 13]: 0.51 | Slc10a2 (ASBT or IBAT) FC_10 [4, 13]: 1.38 | Slc51a (OSTα) FC_10 [4, 13]: 1.34 | Slc51b (OSTβ) FC_10 [4, 13]: 0.93 | Cyp3a44 P1(t)_30 ([4]; ileum, 30 µg/kg TCDD): 0.7035 | Cyp3a44 FC_30 [4, 14]: 0.58 | Fgf15 FC_30 [4, 14]: 0.10 | Slc10a2 (ASBT or IBAT) FC_30 [4, 14]: 1.59 | Slc51a (OSTα) FC_30 [4, 14]: 1.15 | Slc51b (OSTβ) FC_30 [4, 14]: 0.79 | Cyp3a44 ileal expression, fold repression [4, 15]: 2.2 fold | Slc51b ileal expression [4, 15]: unchanged | Hepatic cholesterol ester level, fold increase [5]: 11.3 fold | Hepatic cholesterol level, fold increase ([5]; not confirmed by high resolution MS/MS): 9.0 fold
